# Tested on: S. mansoni schistosomulae
# Experiment: Phenotypic primary screen assay on schistosomulae (phenotype; viability by methylene blue dye exclusion)
# Format: cell-based
# Conditions: Schistosoma mansoni; three-day-old schistosomulae, 10 μM, 24 h; calculated 5 days post compound exposure; read-out: Viability (%)
row,Structure (SMILES),viability at 10 µM [%]
1,"O=[N+]([O-])C=Cc1ccc2c(c1)OCO2 [MNS, 3,4-methylenedioxy-β-nitrostyrene]",43
2,COCCn1c2c([n+](Cc3cnccn3)c1C)C(=O)c1ccccc1C2=O [YM155],40
3,O=C1Cc2cc(CCN3CCN(c4nsc5ccccc45)CC3)c(Cl)cc2N1 [Ziprasidone],2.5

# Tested on: S. mansoni schistosomulae
# Experiment: Motility assay on schistosomulae (pixel displacement, relative to DMSO control)
# Format: cell-based, Schistosoma mansoni
# Conditions: Schistosoma mansoni, 120 h; schistosomulae, secondary screen, 24h exposure, read at D5, 1 µM; read-out: Fractional motility
# Summary of the method: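 Motility was scored by pixel displacement from 1-min videos (10 frames/s) and compared with DMSO controls. Schistosomulae (200/well, Opti-MEM, 5% dialyzed FBS, no antibiotics) received compound at 1 or 10 μM for 24 h; selected hits were also followed at 1, 3, 6 and 12 h.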
row,Structure (SMILES),activity at 1 µM [%]
1,"O=[N+]([O-])C=Cc1ccc2c(c1)OCO2 [MNS, 3,4-methylenedioxy-β-nitrostyrene]",103
2,COCCn1c2c([n+](Cc3cnccn3)c1C)C(=O)c1ccccc1C2=O [YM155],-82
3,O=C1Cc2cc(CCN3CCN(c4nsc5ccccc45)CC3)c(Cl)cc2N1 [Ziprasidone],-73

# Same assay, conditions: Schistosoma mansoni; schistosomulae, secondary screen, 24h exposure, read at D1, 1 µM; read-out: Fractional motility
row,Structure (SMILES),activity at 1 µM [%]
1,"O=[N+]([O-])C=Cc1ccc2c(c1)OCO2 [MNS, 3,4-methylenedioxy-β-nitrostyrene]",241
2,COCCn1c2c([n+](Cc3cnccn3)c1C)C(=O)c1ccccc1C2=O [YM155],-73
3,O=C1Cc2cc(CCN3CCN(c4nsc5ccccc45)CC3)c(Cl)cc2N1 [Ziprasidone],0.0588

# Same assay, conditions: schistosomulae, 1h exposure, read at D1, 10 µM
row,Structure (SMILES),Fractional motility
1,"O=[N+]([O-])C=Cc1ccc2c(c1)OCO2 [MNS, 3,4-methylenedioxy-β-nitrostyrene]",-0.95
2,COCCn1c2c([n+](Cc3cnccn3)c1C)C(=O)c1ccccc1C2=O [YM155],-0.48
3,O=C1Cc2cc(CCN3CCN(c4nsc5ccccc45)CC3)c(Cl)cc2N1 [Ziprasidone],9.35

# Same assay, conditions: schistosomulae, 1h exposure, read at D5, 10 µM
row,Structure (SMILES),Fractional motility
1,"O=[N+]([O-])C=Cc1ccc2c(c1)OCO2 [MNS, 3,4-methylenedioxy-β-nitrostyrene]",-0.06
2,COCCn1c2c([n+](Cc3cnccn3)c1C)C(=O)c1ccccc1C2=O [YM155],-0.85
3,O=C1Cc2cc(CCN3CCN(c4nsc5ccccc45)CC3)c(Cl)cc2N1 [Ziprasidone],-0.16

# Same assay, conditions: schistosomulae, 3h exposure, read at D1, 10 µM
row,Structure (SMILES),Fractional motility
1,"O=[N+]([O-])C=Cc1ccc2c(c1)OCO2 [MNS, 3,4-methylenedioxy-β-nitrostyrene]",-0.96
2,COCCn1c2c([n+](Cc3cnccn3)c1C)C(=O)c1ccccc1C2=O [YM155],-0.70
3,O=C1Cc2cc(CCN3CCN(c4nsc5ccccc45)CC3)c(Cl)cc2N1 [Ziprasidone],8.26

# Same assay, conditions: schistosomulae, 3h exposure, read at D5, 10 µM
row,Structure (SMILES),Fractional motility
1,"O=[N+]([O-])C=Cc1ccc2c(c1)OCO2 [MNS, 3,4-methylenedioxy-β-nitrostyrene]",-0.87
2,COCCn1c2c([n+](Cc3cnccn3)c1C)C(=O)c1ccccc1C2=O [YM155],-0.96
3,O=C1Cc2cc(CCN3CCN(c4nsc5ccccc45)CC3)c(Cl)cc2N1 [Ziprasidone],-0.06

# Same assay, conditions: schistosomulae, 6h exposure, read at D1, 10 µM
row,Structure (SMILES),Fractional motility
1,"O=[N+]([O-])C=Cc1ccc2c(c1)OCO2 [MNS, 3,4-methylenedioxy-β-nitrostyrene]",-0.83
2,COCCn1c2c([n+](Cc3cnccn3)c1C)C(=O)c1ccccc1C2=O [YM155],1.86
3,O=C1Cc2cc(CCN3CCN(c4nsc5ccccc45)CC3)c(Cl)cc2N1 [Ziprasidone],0.49

# Same assay, conditions: schistosomulae, 6h exposure, read at D5, 10 µM
row,Structure (SMILES),Fractional motility
1,"O=[N+]([O-])C=Cc1ccc2c(c1)OCO2 [MNS, 3,4-methylenedioxy-β-nitrostyrene]",-0.87
2,COCCn1c2c([n+](Cc3cnccn3)c1C)C(=O)c1ccccc1C2=O [YM155],-1.00
3,O=C1Cc2cc(CCN3CCN(c4nsc5ccccc45)CC3)c(Cl)cc2N1 [Ziprasidone],0.31

# Same assay, conditions: schistosomulae, after 24 h incubation
row,Structure (SMILES),hypermotility relative to control [fold]
1,O=C1Cc2cc(CCN3CCN(c4nsc5ccccc45)CC3)c(Cl)cc2N1 [Ziprasidone],11 ± 2

# Same assay, conditions: schistosomulae, long-term, five days after compound washout
row,Structure (SMILES),motility phenotype in words
1,O=C1Cc2cc(CCN3CCN(c4nsc5ccccc45)CC3)c(Cl)cc2N1 [Ziprasidone],all parasites became paralyzed

# Same assay, conditions: schistosomulae, secondary screen, 24h exposure, read at D1, 10 µM
row,Structure (SMILES),Fractional motility
1,"O=[N+]([O-])C=Cc1ccc2c(c1)OCO2 [MNS, 3,4-methylenedioxy-β-nitrostyrene]",2.46
2,COCCn1c2c([n+](Cc3cnccn3)c1C)C(=O)c1ccccc1C2=O [YM155],-0.91
3,O=C1Cc2cc(CCN3CCN(c4nsc5ccccc45)CC3)c(Cl)cc2N1 [Ziprasidone],10.63

# Same assay, conditions: schistosomulae, secondary screen, 24h exposure, read at D5, 10 µM
row,Structure (SMILES),Fractional motility
1,"O=[N+]([O-])C=Cc1ccc2c(c1)OCO2 [MNS, 3,4-methylenedioxy-β-nitrostyrene]",-0.0952
2,COCCn1c2c([n+](Cc3cnccn3)c1C)C(=O)c1ccccc1C2=O [YM155],-1.00
3,O=C1Cc2cc(CCN3CCN(c4nsc5ccccc45)CC3)c(Cl)cc2N1 [Ziprasidone],-1.00

# Same assay, conditions: three-day old schistosomulae, incubation 1 h, 3 h, 6 h
row,Structure (SMILES),"motility in extended assay with reduced incubation times, in words"
1,COCCn1c2c([n+](Cc3cnccn3)c1C)C(=O)c1ccccc1C2=O [YM155],significant and sustained hypomotility
2,O=C1Cc2cc(CCN3CCN(c4nsc5ccccc45)CC3)c(Cl)cc2N1 [Ziprasidone],did not exhibit a significant change before the 24 hr incubation cut-off

# Tested on: naïve Glo HEK293 cells (no receptor)
# Experiment: cAMP luminescence (GloSensor) assay on naïve Glo HEK293 cells (no receptor)
# Format: cell-based, human
# Conditions: 20 μM forskolin
# Procedure: The SmGPR2 sequence previously identified ([El-Shehabi and Ribeiro, 2010]) was codon optimized for mammalian expression and subcloned in the vector pCI-neo (Addgene, USA) using the XbaI and NotI restriction enzymes. A FLAG fusion tag ([…]) was introduced at the N-terminal end of the receptor sequence. Stable transfection of HEK293 cells (ATCC; CRL-1573) was performed using the X-tremeGENE 9 DNA transfection reagent (Sigma Aldrich). Cells were then cultured at 37 °C, 5% CO2 in Opti-MEM supplemented with 5% FBS and maintained in 400 μg/mL G418 (Sigma Aldrich) for selection of transformants. […] All cell lines expressing S. mansoni GPCRs were then transfected with the GloSensor encoding plasmid p22F (Promega) and media was supplemented with 100 μg/mL hygromycin for stable expression (ThermoFisher).
# Adherent HEK293 cells were seeded at a density of 5 x 10^4 cells/well (96-well plate) in Opti-MEM without FBS or antibiotics and incubated overnight at 37 °C and 5% CO2 prior to the assay. In place of the media, 100 μL HBSS supplemented with 0.1% bovine serum albumin (BSA), 500 μM 3-isobutyl-1-methylxanthine (IBMX, Sigma Aldrich), 20 mM HEPES (pH 7.4) and 1 mg/mL D-luciferin (Goldbio) was added to each well. After a 2 h incubation period at room temperature, luminescence background was recorded, and compounds and control ligands were added at 10X concentration. Immediately after compound addition, luminescence was read over a 45 min period to detect compounds stimulating cAMP release through receptor activation. […] For each assay, luminescence responses were recorded in triplicate and repeated with four independant cell batches. Compounds were also added to naïve Glo HEK293 cells (no receptor) and the robustness of the assay was calculated as: Z^'=1−3×(SDmax+SDmin)/Meanmax−Meanmin with max and min referring respectively to cells expressing GPCRs and Glo (no receptor) cells. Cellular viability was assessed using a CellTiter Glo 2.0 kit (Promega). Glo cells were exposed to 10 μM of each hit compound for 3 h in Opti-MEM at 37 °C, 5% CO2. An equimolar concentration of tamoxifen (Sigma Aldrich) was used as a positive control. 2X cell lysis media was then added and end-point luminescence recorded after a 10 min stabilization time.
row,Structure (SMILES),effect on luminescence evoked by forskolin
1,"O=[N+]([O-])C=Cc1ccc2c(c1)OCO2 [MNS, 3,4-methylenedioxy-β-nitrostyrene]",significant decrease in luminescence

# Tested on: S. mansoni schistosomulae
# Experiment: Phenotypic primary screen assay on schistosomulae (phenotype; viability by methylene blue dye exclusion)
# Format: cell-based, Schistosoma mansoni
# Conditions: three-day-old schistosomulae, 10 μM, 24 h; estimated 5 days post compound exposure
# Summary of the method: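 Parasites lacking contraction/relaxation cycles and showing dark internal granulations counted as dead. Movement and body shape were compared with DMSO-treated controls under a stereo microscope at 24 h and at five days of exposure. Larvae came from infected snails shed under light for 2 h at 32 °C.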
row,Structure (SMILES),Phenotype
1,"O=[N+]([O-])C=Cc1ccc2c(c1)OCO2 [MNS, 3,4-methylenedioxy-β-nitrostyrene]","blebbing, dark, granulated"
2,COCCn1c2c([n+](Cc3cnccn3)c1C)C(=O)c1ccccc1C2=O [YM155],"big, granulated"
3,O=C1Cc2cc(CCN3CCN(c4nsc5ccccc45)CC3)c(Cl)cc2N1 [Ziprasidone],"dark, granulated"

# Tested on: S. mansoni adult worms
# Experiment: Motility assay on adult parasites (pixel displacement, relative to DMSO control)
# Format: cell-based, Schistosoma mansoni
# Conditions: secondary screen, 10 μM, D1, Female adult worms
# Summary of the method: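 Unpaired adult worms from mice 6 weeks post-infection kept in OPTI-MEM with 5% dialyzed FBS and exposed to compounds at 1 and 10 μM for 24 h. Motility filmed 1 min at 10 frames/s, quantified by pixel displacement versus DMSO-treated worms; recovery followed up to five days after washout.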
row,Structure (SMILES),Fractional motility
1,"O=[N+]([O-])C=Cc1ccc2c(c1)OCO2 [MNS, 3,4-methylenedioxy-β-nitrostyrene]",-0.14
2,COCCn1c2c([n+](Cc3cnccn3)c1C)C(=O)c1ccccc1C2=O [YM155],0.22
3,O=C1Cc2cc(CCN3CCN(c4nsc5ccccc45)CC3)c(Cl)cc2N1 [Ziprasidone],1.30

# Same assay, conditions: secondary screen, 10 μM, D1, Male adult worms
row,Structure (SMILES),Fractional motility
1,"O=[N+]([O-])C=Cc1ccc2c(c1)OCO2 [MNS, 3,4-methylenedioxy-β-nitrostyrene]",-0.40
2,COCCn1c2c([n+](Cc3cnccn3)c1C)C(=O)c1ccccc1C2=O [YM155],1.90
3,O=C1Cc2cc(CCN3CCN(c4nsc5ccccc45)CC3)c(Cl)cc2N1 [Ziprasidone],0.47

# Same assay, conditions: secondary screen, 10 μM, D5, Female adult worms
row,Structure (SMILES),Fractional motility
1,"O=[N+]([O-])C=Cc1ccc2c(c1)OCO2 [MNS, 3,4-methylenedioxy-β-nitrostyrene]",-0.83
2,COCCn1c2c([n+](Cc3cnccn3)c1C)C(=O)c1ccccc1C2=O [YM155],-0.79
3,O=C1Cc2cc(CCN3CCN(c4nsc5ccccc45)CC3)c(Cl)cc2N1 [Ziprasidone],-0.12

# Same assay, conditions: secondary screen, 10 μM, D5, Male adult worms
row,Structure (SMILES),Fractional motility
1,"O=[N+]([O-])C=Cc1ccc2c(c1)OCO2 [MNS, 3,4-methylenedioxy-β-nitrostyrene]",-0.55
2,COCCn1c2c([n+](Cc3cnccn3)c1C)C(=O)c1ccccc1C2=O [YM155],0.70
3,O=C1Cc2cc(CCN3CCN(c4nsc5ccccc45)CC3)c(Cl)cc2N1 [Ziprasidone],0.73

# Target: Sm5HTR (Schistosoma mansoni, UniProt G4V5G4)
# Sequence (G4V5G4 entry or part of it): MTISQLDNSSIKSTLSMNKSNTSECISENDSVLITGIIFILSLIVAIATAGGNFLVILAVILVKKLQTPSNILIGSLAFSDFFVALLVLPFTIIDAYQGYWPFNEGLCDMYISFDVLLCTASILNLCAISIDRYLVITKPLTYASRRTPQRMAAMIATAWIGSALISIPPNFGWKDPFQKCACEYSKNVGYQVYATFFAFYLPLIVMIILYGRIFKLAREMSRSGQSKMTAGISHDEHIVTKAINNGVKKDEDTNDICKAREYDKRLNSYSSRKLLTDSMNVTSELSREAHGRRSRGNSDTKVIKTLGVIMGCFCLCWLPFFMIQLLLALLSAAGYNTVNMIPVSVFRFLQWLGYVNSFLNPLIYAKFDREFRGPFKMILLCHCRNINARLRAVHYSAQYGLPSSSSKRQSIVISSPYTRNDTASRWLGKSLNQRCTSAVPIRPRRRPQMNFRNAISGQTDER
# Experiment: cAMP luminescence (GloSensor) assay, HEK293 cells expressing Sm5HTR
# Format: cell-based, S. mansoni
# Conditions: compound incubation followed by 50 μM 5-HT
row,Structure (SMILES),inhibition of Sm5HTR 5-HT-evoked signals [%]
1,"O=[N+]([O-])C=Cc1ccc2c(c1)OCO2 [MNS, 3,4-methylenedioxy-β-nitrostyrene]",≥ 50
